Reference: patent publication US6124306A, “Thioalkyl alpha substituted pyrimidine compounds” (Pharmacia & Upjohn Company, priority 1998, dated 2000)

Key:
MF-delavirdine (P236L) = assay: Antiviral activity in MT4 cells, HIV-1 p24 core antigen quantitation; assay type: cell-based; conditions: Human immunodeficiency virus 1, MT4, 96 h, read-out: MF-delavirdine (P236L) IC90 (μM)
Protocol: (§1) Assessment of the antiviral activities of the Compounds 1 and 290 versus the panel of viruses used in these studies was carried out in MT4 cells. Cells were batch infected with the appropriate virus stock at a multiplicity of infection of 0.001-0.005 TCID50 per cell for 2 hours at 37° C. The cells were washed, resuspended in RPMI/FBS and plated in 24 well dishes at a final concentration of 1.5×10^5 cells/ml to which were added 2× drug treatments prepared in RPMI/FBS. All treatment concentrations were tested in duplicate. The final DMSO concentration for all treatments or vehicle control cultures was 0.1%. At four days post-infection culture fluid samples were collected for HIV-1 p24 core antigen quantitation to determine antiviral effects. Linear regression analysis was used to calculate the drug concentration necessary to inhibit 90% (inhibitory concentration 90, IC90) of non-drug treated p24 antigen production.

IIIB-WT = assay: as above; assay type: cell-based; conditions: Human immunodeficiency virus 1, IIIB, 96 h, infection 0.001-0.005 TCID50 per cell, p24 antigen at four days post-infection, concentration inhibiting 90% of p24 production
Protocol: as §1

Row | SMILES | IC90 (MF-delavirdine (P236L)) [µM] | IC90 (IIIB-WT) [µM]
1 | CSc1cc(N)nc(S[C@@H](C)c2cc3c(C)coc3cn2)n1 [Compound #290, (S)-(-)-4-Amino-6-methylthio-2-(1-(3-methylfuro[2,3-c]pyridine-5-yl)ethyl)thio-pyrimidine] | 0.02 | 0.004
2 | CSc1cc(N)nc(S[C@@H](C)c2cc3ccoc3cn2)n1 [Compound #1] | 0.02 | 0.008
